{"source": "ChEMBL document CHEMBL1129930", "about": "“Analogues of methotrexate in rheumatoid arthritis. 2. Effects of 5-deazaaminopterin, 5,10-dideazaaminopterin, and analogues on type II collagen-induced arthritis in mice” (J Med Chem, 1997)", "assay_type_in_all_cases": "functional", "key": {"Mus musculus [1]": {"tested_on": "Mus musculus", "test": "Incidence of disease (mouse type II collagen) was scored as the percentage of animals within each experimental group that exhibited joint or limb inflammation on day 37 at intraperitoneal dose of 10 mg/kg"}, "Mus musculus [2]": {"tested_on": "Mus musculus", "test": "Incidence of disease (mouse type II collagen) was scored as the percentage of animals within each experimental group that exhibited joint or limb inflammation on day 37 at intraperitoneal dose of 5 mg/kg"}, "Mus musculus [3]": {"tested_on": "Mus musculus", "test": "Incidence of disease (mouse type II collagen) was scored as the percentage of animals within each experimental group that exhibited joint or limb inflammation on day 23 at intraperitoneal dose of 10 mg/kg"}, "Mus musculus [4]": {"tested_on": "Mus musculus", "test": "Incidence of disease (mouse type II collagen) was scored as the percentage of animals within each experimental group that exhibited joint or limb inflammation on day 23 at intraperitoneal dose of 5 mg/kg"}, "Mus musculus [5]": {"tested_on": "Mus musculus", "test": "Incidence of disease (mouse type II collagen) was scored as the percentage of animals within each experimental group that exhibited joint or limb inflammation on day 44 at intraperitoneal dose of 10 mg/kg"}, "Mus musculus [6]": {"tested_on": "Mus musculus", "test": "Incidence of disease (mouse type II collagen) was scored as the percentage of animals within each experimental group that exhibited joint or limb inflammation on day 44 at intraperitoneal dose of 5 mg/kg"}, "Mus musculus [7]": {"tested_on": "Mus musculus", "test": "Incidence of disease (mouse type II collagen) was scored as the percentage of animals within each experimental group that exhibited joint or limb inflammation on day 30 at intraperitoneal dose of 10 mg/kg"}, "Mus musculus [8]": {"tested_on": "Mus musculus", "test": "Incidence of disease (mouse type II collagen) was scored as the percentage of animals within each experimental group that exhibited joint or limb inflammation on day 30 at intraperitoneal dose of 5 mg/kg"}, "Mus musculus [9]": {"tested_on": "Mus musculus", "test": "Tested for antiinflammatory activity on mouse type II collagen arthritis as Paw swelling of all animals in each group on day 44 at intraperitoneal dose of 5 mg/kg"}, "Mus musculus [10]": {"tested_on": "Mus musculus", "test": "Tested for antiinflammatory activity on mouse type II collagen arthritis as Paw swelling of all animals in each group on day 30 at intraperitoneal dose of 10 mg/kg"}, "Mus musculus [11]": {"tested_on": "Mus musculus", "test": "Tested for antiinflammatory activity on mouse type II collagen arthritis as Paw swelling of all animals in each group on day 23 at intraperitoneal dose of 10 mg/kg"}, "Mus musculus [12]": {"tested_on": "Mus musculus", "test": "Tested for antiinflammatory activity on mouse type II collagen arthritis as Paw swelling of all animals in each group on day 23 at intraperitoneal dose of 5 mg/kg"}, "Mus musculus [13]": {"tested_on": "Mus musculus", "test": "Tested for antiinflammatory activity on mouse type II collagen arthritis as Paw swelling of all animals in each group on day 44 at intraperitoneal dose of 10 mg/kg"}, "Mus musculus [14]": {"tested_on": "Mus musculus", "test": "Tested for antiinflammatory activity on mouse type II collagen arthritis as Paw swelling of all animals in each group on day 37 at intraperitoneal dose of 5 mg/kg"}, "Mus musculus [15]": {"tested_on": "Mus musculus", "test": "Tested for antiinflammatory activity on mouse type II collagen arthritis as Paw swelling of all animals in each group on day 37 at intraperitoneal dose of 10 mg/kg"}, "Mus musculus [16]": {"tested_on": "Mus musculus", "test": "Tested for antiinflammatory activity on mouse type II collagen arthritis as Paw swelling of all animals in each group on day 30 at intraperitoneal dose of 5 mg/kg"}}}
{"smiles": "C#CCC(Cc1cnc2nc(N)nc(N)c2c1C)c1ccc(C(=O)NC(CCC(=O)O)C(=O)O)cc1", "note": "(stereo unspecified)", "values": [{"measurement": "Animals", "setting": "Mus musculus [1]", "value": 71, "unit": "%"}, {"measurement": "Animals", "setting": "Mus musculus [2]", "value": 62, "unit": "%"}, {"measurement": "Animals", "setting": "Mus musculus [3]", "value": 14, "unit": "%"}, {"measurement": "Animals", "setting": "Mus musculus [4]", "value": 12, "unit": "%"}, {"measurement": "Animals", "setting": "Mus musculus [5]", "value": 71, "unit": "%"}, {"measurement": "Animals", "setting": "Mus musculus [6]", "value": 88, "unit": "%"}, {"measurement": "Animals", "setting": "Mus musculus [7]", "value": 57, "unit": "%"}, {"measurement": "Animals", "setting": "Mus musculus [8]", "value": 12, "unit": "%"}, {"measurement": "Paw swelling", "setting": "Mus musculus [9]", "value": 2.64, "unit": "mm"}, {"measurement": "Paw swelling", "setting": "Mus musculus [10]", "value": 2.37, "unit": "mm"}, {"measurement": "Paw swelling", "setting": "Mus musculus [11]", "value": 2.19, "unit": "mm"}, {"measurement": "Paw swelling", "setting": "Mus musculus [12]", "value": 2.18, "unit": "mm"}, {"measurement": "Paw swelling", "setting": "Mus musculus [13]", "value": 2.7, "unit": "mm"}, {"measurement": "Paw swelling", "setting": "Mus musculus [14]", "value": 2.45, "unit": "mm"}, {"measurement": "Paw swelling", "setting": "Mus musculus [15]", "value": 2.65, "unit": "mm"}, {"measurement": "Paw swelling", "setting": "Mus musculus [16]", "value": 2.17, "unit": "mm"}]}
